Test results from patent publication US9358250B2, “Methods of using SCD1 antagonists” (Genentech, Inc., priority 2011, dated 2016).
Like-named read-outs stand apart in the source and are kept apart here.

Experiments:
SCD1 [1] = target: T1, SCD1 (Homo sapiens, UniProt O00767); conditions: human SCD1; cited from earlier work
T1 sequence (O00767 1-359): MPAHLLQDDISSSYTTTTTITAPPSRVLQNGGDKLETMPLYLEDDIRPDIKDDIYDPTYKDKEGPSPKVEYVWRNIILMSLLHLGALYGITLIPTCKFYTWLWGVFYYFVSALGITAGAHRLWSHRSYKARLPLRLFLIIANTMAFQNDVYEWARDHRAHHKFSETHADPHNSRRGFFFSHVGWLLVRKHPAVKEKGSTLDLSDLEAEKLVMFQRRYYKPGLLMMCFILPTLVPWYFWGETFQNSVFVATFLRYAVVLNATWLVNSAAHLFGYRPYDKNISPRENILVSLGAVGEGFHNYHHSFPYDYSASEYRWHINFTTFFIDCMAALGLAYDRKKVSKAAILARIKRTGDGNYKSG

rat SCD1 = target: T2, rat SCD1 (Rattus norvegicus, UniProt P07308); conditions: cited from earlier work
T2 sequence (P07308 1-358): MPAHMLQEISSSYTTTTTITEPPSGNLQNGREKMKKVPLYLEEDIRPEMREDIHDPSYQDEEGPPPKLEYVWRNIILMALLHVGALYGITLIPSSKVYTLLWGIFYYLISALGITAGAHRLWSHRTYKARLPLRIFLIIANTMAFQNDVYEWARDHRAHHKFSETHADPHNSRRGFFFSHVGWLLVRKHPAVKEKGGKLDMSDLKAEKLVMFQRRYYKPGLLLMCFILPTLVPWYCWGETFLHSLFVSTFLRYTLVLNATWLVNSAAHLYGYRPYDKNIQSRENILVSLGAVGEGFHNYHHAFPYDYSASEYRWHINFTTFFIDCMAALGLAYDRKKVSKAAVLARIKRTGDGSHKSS

HCT-15 = assay: Cell viability, CellTiter-Glo; type: cell-based, human; conditions: Homo sapiens, HCT-15, 72 h
Protocol: (§1) For SCD1 small molecule inhibitor experiment, cells were treated with indicated concentration of A37062 (Abbott compound 4c) or G02447171.1 (Daichii compound 24) in DMSO or DMSO alone for 48-72 hr. Cell viability was assessed with CellTiter-Glo at 72 hr post treatment (Promega). Activation of caspase 3 and caspase 7 was measured with the Caspase-Glo 3/7 assay kit at 48 hr after treatment (Promega). Values are presented as mean+/−SD of quadruplets. Data are representative of at least three independent experiments.
(§2) To investigate the effect of SCD1 small molecule antagonists on cancer cell lines were treated with serially diluted A37062 for 72 hr, and […] cell viability was measured by CellTiter-Glo (Promega) as described above.
(§3) To investigate the effect of additional SCD1 small molecule antagonists, HT29 and HCT15 were treated with serially diluted small molecule inhibitors RG1-14 and G02447171 (G7171) for 72 hr, and cell viability was measured by CellTiter-Glo (Promega). The specificity and selectivity of the SCD1 small molecule inhibitors was also evaluated.

HT29 = assay: Cell viability, CellTiter-Glo; type: cell-based, human; conditions: Homo sapiens, HT-29, 72 h
Protocol: as §1, §2, §3

[2] = system: phosphorylation of AKT, S6, and MAPK; assay: Western blot, FGF1-stimulated RT112 cells; type: cell-based, human; conditions: rapamycin 50 nM, Ly294002 20 μM, PD325901 100 nM
Protocol: (§4) FIG. 8. FGFR3 signalling promotes the accumulation of matured SREBP1 and lipogenesis via PI3K-mTORC1 pathway. (A) Pharmacological inhibition of FGFR3 signalling. RT112 cells were serum starved for 20 hr, then treated with rapamycin (50 nM), Ly294002 (Ly294, 20 μM) and PD325901(PD901, 100 nM) for 2 hr, followed by stimulation with 30 ng/ml FGF1 plus 10 μg/mL of heparin for 10 min. Cell lysates were subjected to immunoblot analyses with indicated antibodies. Note the increased phosphorylation of MEK upon PD901 treatment, presumably due to a relief of feedback inhibition. (B) PI3K-mTORC1 and MEK inhibitors block FGF1 induction of SREBP1 and SCD1 in RT112 cells. RT112 cells were serum starved for 20 hr, treated with kinase inhibitors for 4 hr, followed by 24 hr incubation in medium supplemented with 30 ng/ml FGF1. Cell lysates were immunoblotted to detect SREBP1 maturation, SCD1 and FASN expression. (C) PI3K-mTORC1 and MEK inhibitors block FGF1-stimulated lipid synthesis. RT112 cells were treated the same as described in (B). [^14C]acetate was added for the final 4 hr incubation. The lipid fraction was extracted and [^14C]acetate incorporated into lipids was measured by scintillation counting. Data were normalized to sample protein content, and presented as mean+/−SD. […]

[3] = system: SREBP1 maturation, SCD1 and FASN expression; assay: Western blot, FGF1-treated RT112 cells; type: cell-based, human
Protocol: FIG. 8. FGFR3 signalling promotes the accumulation of matured SREBP1 and lipogenesis via PI3K-mTORC1 pathway. (A) Pharmacological inhibition of FGFR3 signalling. RT112 cells were serum starved for 20 hr, then treated with rapamycin (50 nM), Ly294002 (Ly294, 20 μM) and PD325901(PD901, 100 nM) for 2 hr, followed by stimulation with 30 ng/ml FGF1 plus 10 μg/mL of heparin for 10 min. Cell lysates were subjected to immunoblot analyses with indicated antibodies. Note the increased phosphorylation of MEK upon PD901 treatment, presumably due to a relief of feedback inhibition. (B) PI3K-mTORC1 and MEK inhibitors block FGF1 induction of SREBP1 and SCD1 in RT112 cells. RT112 cells were serum starved for 20 hr, treated with kinase inhibitors for 4 hr, followed by 24 hr incubation in medium supplemented with 30 ng/ml FGF1. Cell lysates were immunoblotted to detect SREBP1 maturation, SCD1 and FASN expression. (C) PI3K-mTORC1 and MEK inhibitors block FGF1-stimulated lipid synthesis. RT112 cells were treated the same as described in (B). [^14C]acetate was added for the final 4 hr incubation. The lipid fraction was extracted and [^14C]acetate incorporated into lipids was measured by scintillation counting. Data were normalized to sample protein content, and presented as mean+/−SD.
(§5) It's worth noting that in Ca129 bladder cancer cells, rapamycin and Ly294002 blocked the accumulation of active SREBP1 and the expression of SCD1, consistent with the results observed in RT112 cells (FIG. 9). […] Thus, in bladder cancer cells, FGFR3 mainly signals through PI3K-mTORC1 axis to promote SREBP1 cleavage and activation, resulting in elevated de novo lipogenesis and fatty acid desaturation. The contribution of MEK-MAPK pathway may be cell line- and/or context-dependent.

[4] = system: total fatty acid synthesis; assay: FGF1-stimulated lipid synthesis, [^14C]acetate, RT112 cells; type: cell-based, human
Protocol: as §4, with “(C) PI3K-mTORC1 and MEK inhibitors block FGF1-stimulated lipid synthesis. RT112 cells were treated the same as described in (B). [^14C]acetate was added for the final 4 hr incubation.” left out, “counting.” for “counting. Data were normalized to sample protein content, and presented as mean+/−SD.”
Lipogenic activity was determined by monitoring the incorporation of [1,2-^14C] acetate (Perkin Elmer, Waltham, Mass.) into fatty acids as reported (39). […] The fatty acids fractions were collected, dried under a steam of nitrogen, and analyzed by scintillation counting. The [^14C] radioactivity was normalized to sample protein content. […]

[5] = system: matured SREBP1 and SCD1 expression; assay: Western blot, FGF1-treated Ca129 cells; type: cell-based, human
Protocol: FIG. 9. FGFR3 signalling promotes the accumulation of matured SREBP1 and SCD1 expression via PI3K-mTORC1 pathway but not MEK-MAPK pathway in Ca129 cells. Ca129 cells were serum starved for 20 hr, treated for 4 hr with vehicle (DMSO), 50 nM rapamycin (Rapa), Ly294002 (Ly294, 20 μM) and PD325901(PD901, 100 nM). Then cells were cultured in medium supplemented with 30 ng/ml FGF1 for 24 hr. Cell lysates were analyzed by Western blot.
as §5

SCD1 [6] = target: T1, SCD1; conditions: cited from earlier work

SMILES | IC50 (HCT-15; Experiment 1 HCT15, 72 hr) | IC50 (HCT-15; Experiment 2 HCT15, 72 hr) | IC50 (HT29; Experiment 1 HT29, 72 hr) | IC50 (HT29; Experiment 2 HT29, 72 hr) | also measured
COc1ccc(-c2nc3cnc(NCc4ccc(Cl)c(Cl)c4)nc3n(CCNC(C)=O)c2=O)cc1 [Compound 51] |  |  |  |  | IC50 (SCD1 [1]): 280 nM; IC50 (rat SCD1): 250 nM
O=c1cc(N2CCN(Cc3cc(OC(F)(F)F)ccc3O)CC2)nc[nH]1 [RG14] | 24.6 nM | 53 nM | 689 nM | 323 nM | 
O=c1cc(N2CCN(Cc3cc(Cl)ccc3[N+](=O)[O-])CC2)nc[nH]1 [RG7] | 177 nM | 495 nM | 89.7 nM | 272 nM | 
O=C(NOC[C@H](O)CO)c1ccc(F)c(F)c1Nc1ccc(I)cc1F [PD325901] |  |  |  |  | FGF1-induced activation of intended target (phosphorylation) [2]: blunted FGF1-induced activation of their intended target; FASN expression [3]: reduced only modestly; SCD1 expression [3]: diminished significantly; basal and FGF1-induced level of the cleaved active SREBP1 [3]: substantially reduced; total fatty acid synthesis stimulated by FGF1 [4]: markedly suppressed; accumulation of active SREBP1 [5]: only partially reduced; expression / induction of SCD1 [5]: did not have much effect
Cc1cc(Cl)cc(CN2CCN(c3cc(=O)[nH]cn3)CC2)c1O [RG12] | 1 nM | 4.33 nM | 378 nM | 83.5 nM | 
O=C(NCc1cccnc1)c1sc(N2CCN(Cc3ccc(F)cc3)C2=O)nc1C(F)(F)F [Compound 23] |  |  |  |  | IC50 (SCD1 [6]): 10 nM
O=c1cc(N2CCN(Cc3cc(I)ccc3O)CC2)nc[nH]1 [RG2] | 58.1 nM | 122 nM | 683 nM | 398 nM | 
Cc1nnc(-c2ccc(N3CCC(Oc4cc(F)ccc4Cl)CC3)nn2)o1 [Compound 49] |  |  |  |  | IC50 (SCD1 [1]): 37 nM
Cc1c(Br)cccc1CN1CCN(c2cc(=O)[nH]cn2)CC1 [RG13] | 288 nM | 274 nM | 129 nM | 191 nM | 
Cc1nc(-n2ccc3c(O)cccc3c2=O)sc1C(=O)NCc1ccccc1 [Compound 19] |  |  |  |  | IC50 (SCD1 [6]): 30 nM
